Columns and labels:
Mus musculus [1] = test: Toxicity in human HT-29 cells xenografted mouse assessed as body weight level at 0.5 mg/kg, iv dosed three times per week to the end of treatment measured on day 21 (reference value: 21.2 +/- 1.6 g); format: organism-based; parameters: dose 0.5 mg/kg, route intravenous; settings: in vivo
HT-29 [2] = test: Antitumor activity against human HT-29 cells xenografted in mouse assessed as tumor volume at 3 mg/kg, iv dosed three times per week to the end of treatment measured on day 10 (reference value: 386 +/- 77 mm3); format: functional
Mus musculus [3] = test: Toxicity in human HT-29 cells xenografted mouse assessed as body weight level at 0.5 mg/kg, iv dosed three times per week to the end of treatment measured on day 14 (reference value: 22.7 +/- 1.5 g); format: organism-based; parameters: dose 0.5 mg/kg, route intravenous; settings: in vivo
Mus musculus [4] = test: Toxicity in human HT-29 cells xenografted mouse assessed as body weight level at 0.5 mg/kg, iv dosed three times per week to the end of treatment measured on day 10 (reference value: 22.4 +/- 1.3 g); format: organism-based; parameters: dose 0.5 mg/kg, route intravenous; settings: in vivo
Mus musculus [5] = test: Toxicity in human HT-29 cells xenografted mouse assessed as body weight level at 3 mg/kg, iv dosed three times per week to the end of treatment measured on day 17 (reference value: 22 +/- 1.7 g); format: organism-based; parameters: dose 3 mg/kg, route intravenous; settings: in vivo
[6] = Stability in human plasma assessed as lactone moieties level at 1 uM incubated at 37 degC after 3 hrs by HPLC method; format: ADME, cell-free; settings: read-out: Stability
[7] = Solubility in water; format: physicochemical
HT-29 [8] = test: Antitumor activity against human HT-29 cells xenografted in mouse assessed as tumor volume at 3 mg/kg, iv dosed three times per week to the end of treatment measured on day 21 (reference value: 1272+/- 273 mm3); format: functional
HT-29 [9] = test: Cytotoxicity against human HT-29 cells after 72 hrs by sulforhodamine B assay; format: functional, cell-based; settings: ht-29
Mus musculus [10] = test: Toxicity in human HT-29 cells xenografted mouse assessed as body weight level at 3 mg/kg, iv dosed three times per week to the end of treatment measured on day 14 (reference value: 22.7 +/- 1.5 g); format: organism-based; parameters: dose 3 mg/kg, route intravenous; settings: in vivo
Mus musculus [11] = test: Toxicity in human HT-29 cells xenografted mouse assessed as lethal toxicity at 3 mg/kg, iv dosed three times per week to the end of treatment; format: organism-based; parameters: dose 3 mg/kg, route intravenous; settings: in vivo
HT-29 [12] = test: Antitumor activity against human HT-29 cells xenografted in mouse assessed as tumor volume at 0.5 mg/kg, iv dosed three times per week to the end of treatment measured on day 14 (reference value: 677 +/- 115 mm3); format: functional
Mus musculus [13] = test: Toxicity in human HT-29 cells xenografted mouse assessed as lethal toxicity at 0.5 mg/kg, iv dosed three times per week to the end of treatment; format: organism-based; parameters: dose 0.5 mg/kg, route intravenous; settings: in vivo
Mus musculus [14] = test: Toxicity in human HT-29 cells xenografted mouse assessed as body weight level at 0.5 mg/kg, iv dosed three times per week to the end of treatment measured on day 17 (reference value: 22 +/- 1.7 g); format: organism-based; parameters: dose 0.5 mg/kg, route intravenous; settings: in vivo
Mus musculus [15] = test: Toxicity in human HT-29 cells xenografted mouse assessed as body weight level at 3 mg/kg, iv dosed three times per week to the end of treatment measured on day 21 (reference value: 21.2 +/- 1.6 g); format: organism-based; parameters: dose 3 mg/kg, route intravenous; settings: in vivo
Mus musculus [16] = test: Toxicity in human HT-29 cells xenografted mouse assessed as body weight level at 3 mg/kg, iv dosed three times per week to the end of treatment measured on day 7 (reference value: 21.7 +/- 1 g); format: organism-based; parameters: dose 3 mg/kg, route intravenous; settings: in vivo
HT-29 [17] = test: Antitumor activity against human HT-29 cells xenografted in mouse assessed as tumor volume at 0.5 mg/kg, iv dosed three times per week to the end of treatment measured on day 21 (reference value: 1272+/- 273 mm3); format: functional
Mus musculus [18] = test: Toxicity in human HT-29 cells xenografted mouse assessed as body weight change at 3 mg/kg, iv dosed three times per week to the end of treatment (reference value: 12.7%); format: organism-based; parameters: dose 3 mg/kg, route intravenous; settings: in vivo
Mus musculus [19] = test: Toxicity in human HT-29 cells xenografted mouse assessed as induction of overt toxic symptoms at 3 mg/kg, iv dosed three times per week to the end of treatment; format: organism-based; parameters: dose 3 mg/kg, route intravenous; settings: in vivo
Mus musculus [20] = test: Toxicity in human HT-29 cells xenografted mouse assessed as induction of anaphylactic reaction at 0.5 mg/kg, iv dosed three times per week to the end of treatment; format: organism-based; parameters: dose 0.5 mg/kg, route intravenous; settings: in vivo
HT-29 [21] = test: Antitumor activity against human HT-29 cells xenografted in mouse assessed as tumor volume at 0.5 mg/kg, iv dosed three times per week to the end of treatment measured on day 7 (reference value: 229 +/- 57 mm3); format: functional
HT-29 [22] = test: Antitumor activity against human HT-29 cells xenografted in mouse assessed as tumor volume at 3 mg/kg, iv dosed three times per week to the end of treatment measured on day 17 (reference value: 807 +/- 197 mm3); format: functional
[23] = Cytotoxicity against human HCT116 cells after 72 hrs by sulforhodamine B assay; format: functional, cell-based, HCT-116; settings: hct-116
HT-29 [24] = test: Antitumor activity against human HT-29 cells xenografted in mouse assessed as tumor volume at 0.5 mg/kg, iv dosed three times per week to the end of treatment measured on day 10 (reference value: 386 +/- 77 mm3); format: functional
Mus musculus [25] = test: Toxicity in human HT-29 cells xenografted mouse assessed as body weight level at 0.5 mg/kg, iv dosed three times per week to the end of treatment measured on day 7 (reference value: 21.7 +/- 1 g); format: organism-based; parameters: dose 0.5 mg/kg, route intravenous; settings: in vivo
Mus musculus [26] = test: Toxicity in human HT-29 cells xenografted mouse assessed as body weight level at 0.5 mg/kg, iv dosed three times per week to the end of treatment measured on day 3 (reference value: 20.7 +/- 1.2 g); format: organism-based; parameters: dose 0.5 mg/kg, route intravenous; settings: in vivo
HT-29 [27] = test: Antitumor activity against human HT-29 cells xenografted in mouse assessed as tumor volume at 0.5 mg/kg, iv dosed three times per week to the end of treatment measured on day 17 (reference value: 807 +/- 197 mm3); format: functional
[28] = Stability in pH 7.4 PBS buffer assessed as formation of carboxylate forms at 1 uM incubated at 37 degC by HPLC method; format: physicochemical; settings: pH 7.4, 1 µM
Mus musculus [29] = test: Toxicity in human HT-29 cells xenografted mouse assessed as induction of anaphylactic reaction at 3 mg/kg, iv dosed three times per week to the end of treatment; format: organism-based; parameters: dose 3 mg/kg, route intravenous; settings: in vivo
HT-29 [30] = test: Antitumor activity against human HT-29 cells xenografted in mouse assessed as tumor volume at 0.5 mg/kg, iv dosed three times per week to the end of treatment measured on day 3 (reference value: 168 +/- 46 mm3); format: functional
Mus musculus [31] = test: Toxicity in human HT-29 cells xenografted mouse assessed as body weight level at 3 mg/kg, iv dosed three times per week to the end of treatment measured on day 3 (reference value: 20.7 +/- 1.2 g); format: organism-based; parameters: dose 3 mg/kg, route intravenous; settings: in vivo
HT-29 [32] = test: Antitumor activity against human HT-29 cells xenografted in mouse assessed as tumor volume at 3 mg/kg, iv dosed three times per week to the end of treatment measured on day 7 (reference value: 229 +/- 57 mm3); format: functional
Mus musculus [33] = test: Toxicity in human HT-29 cells xenografted mouse assessed as body weight level at 3 mg/kg, iv dosed three times per week to the end of treatment measured on day 10 (reference value: 22.4 +/- 1.3 g); format: organism-based; parameters: dose 3 mg/kg, route intravenous; settings: in vivo
HCT-116 = test: Potency index, ratio of IC50 for SN38 to IC50 for compound against human HCT116 cells after 72 hrs by sulforhodamine B assay; format: functional
HT-29 [34] = test: Antitumor activity against human HT-29 cells xenografted in mouse assessed as tumor volume at 3 mg/kg, iv dosed three times per week to the end of treatment measured on day 14 (reference value: 677 +/- 115 mm3); format: functional
Mus musculus [35] = test: Toxicity in human HT-29 cells xenografted mouse assessed as induction of overt toxic symptoms at 0.5 mg/kg, iv dosed three times per week to the end of treatment; format: organism-based; parameters: dose 0.5 mg/kg, route intravenous; settings: in vivo
HT-29 [36] = test: Antitumor activity against human HT-29 cells xenografted in mouse assessed as relative tumor increment rate at 0.5 mg/kg, iv dosed three times per week to the end of treatment relative to untreated control; format: functional
HT-29 [37] = test: Antitumor activity against human HT-29 cells xenografted in mouse assessed as tumor volume at 3 mg/kg, iv dosed three times per week to the end of treatment measured on day 3 (reference value: 168 +/- 46 mm3); format: functional
HT-29 [38] = test: Antitumor activity against human HT-29 cells xenografted in mouse assessed as relative tumor increment rate at 3 mg/kg, iv dosed three times per week to the end of treatment relative to untreated control; format: functional

CC[C@]1(O)c2cc3n(c(=O)c2COC(=O)[C@H]1OC)Cc1c-3nc2cc3c(cc2c1-c1ccncc1)OCO3.Cl showed an Activity (Mus musculus [1]) of 21.3 g, an Activity (HT-29 [2]) of 52 mm3 and an Activity (Mus musculus [3]) of 22.5 g. For the same molecule, the Activity (Mus musculus [4]) was 22 g, the Activity (Mus musculus [5]) was 18.4 g and the remaining at 3 h, 1 µM [6] was 55%. The solubility [7] was 1200 µg/mL, the Activity (HT-29 [8]) was 0 mm3 and the IC50 (HT-29 [9]) was 3.41 nM. The Activity (Mus musculus [10]) was 18.1 g, the Activity (Mus musculus [11]) was “Non-toxic” and the Activity (HT-29 [12]) was 327 mm3. The Activity (Mus musculus [13]) was “Non-toxic”, the Activity (Mus musculus [14]) was 22.2 g and the Activity (Mus musculus [15]) was 18.7 g. The Activity (Mus musculus [16]) was 18.6 g, the Activity (HT-29 [17]) was 550 mm3 and the Activity (Mus musculus [18]) was -2.6%. The Activity (Mus musculus [19]) was “Non-toxic”, the Activity (Mus musculus [20]) was “Non-toxic” and the Activity (HT-29 [21]) was 187 mm3. For the same molecule, the Activity (HT-29 [22]) was 15 mm3, the IC50 [23] was 0.628 nM and the Activity (HT-29 [24]) was 262 mm3. The Activity (Mus musculus [25]) was 21.4 g, the Activity (Mus musculus [26]) was 20.5 g and the Activity (HT-29 [27]) was 380 mm3. For the same molecule, the Stability [28] was “Stable”, the Activity (Mus musculus [29]) was “Non-toxic” and the Activity (HT-29 [30]) was 156 mm3. For the same molecule, the Activity (Mus musculus [31]) was 19.8 g, the Activity (HT-29 [32]) was 93 mm3 and the Activity (Mus musculus [33]) was 16.8 g. For the same molecule, the “Ratio IC50” value (HCT-116) was 20, the Activity (HT-29 [34]) was 51 mm3 and the Activity (Mus musculus [35]) was “Non-toxic”. For the same molecule, the T/C (HT-29 [36]) was 42.84%, the Activity (HT-29 [37]) was 124 mm3 and the T/C (HT-29 [38]) was 0%.
